The text below walks through data of patent publication US20260317324A1, “BIFUNCTIONAL COMPOUNDS FOR DEGRADING BRAF VIA UBIQUITIN PROTEOSOME PATHWAY” (Nurix Therapeutics, Inc., priority 2023, published 2026).

A value given as a limit tells only on which side of the number the result lay.

For orientation: DC50 means the concentration giving 50% degradation. Read a low DC50 as degradation at low concentration. As a reminder, the Dmax is the greatest extent of degradation seen. A low value points to shallow degradation.

Common to all, as to assay type: cell-based
The target in one test is T1, BRAF V600E (Homo sapiens, UniProt P15056, V600E).
T1 construct: endogenous C-terminal HiBiT fusion tag on BRAF V600E allele; endogenous in cells; host or cells: A375 clone 1F10 (CRISPR-Cas9 knock-in of the HiBiT tag; parental A375 from ATCC)
T1 sequence (P15056 whole entry V600E, the tested form may be a part): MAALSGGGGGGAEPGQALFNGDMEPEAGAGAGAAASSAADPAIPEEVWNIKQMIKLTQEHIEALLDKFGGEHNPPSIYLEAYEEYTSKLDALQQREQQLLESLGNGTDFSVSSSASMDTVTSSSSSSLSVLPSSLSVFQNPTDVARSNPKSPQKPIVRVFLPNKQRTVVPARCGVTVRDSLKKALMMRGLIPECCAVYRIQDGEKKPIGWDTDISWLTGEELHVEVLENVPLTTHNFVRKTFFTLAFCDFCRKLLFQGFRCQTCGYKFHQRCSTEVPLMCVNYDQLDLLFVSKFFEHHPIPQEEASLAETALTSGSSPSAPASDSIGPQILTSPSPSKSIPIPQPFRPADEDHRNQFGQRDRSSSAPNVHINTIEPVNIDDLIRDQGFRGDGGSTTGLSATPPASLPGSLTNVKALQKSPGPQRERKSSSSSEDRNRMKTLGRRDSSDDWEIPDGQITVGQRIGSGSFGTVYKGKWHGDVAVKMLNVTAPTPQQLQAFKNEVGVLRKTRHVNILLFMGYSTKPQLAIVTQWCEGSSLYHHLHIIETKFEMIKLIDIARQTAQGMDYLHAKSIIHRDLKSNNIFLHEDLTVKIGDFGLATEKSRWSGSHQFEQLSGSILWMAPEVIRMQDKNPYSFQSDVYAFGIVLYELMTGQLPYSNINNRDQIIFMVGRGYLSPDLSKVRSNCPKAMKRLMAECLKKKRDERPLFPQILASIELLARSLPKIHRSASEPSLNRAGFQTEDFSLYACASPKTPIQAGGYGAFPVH
Kind of test: BRAF HiBiT degradation assay, C-terminal HiBiT-tagged BRAF V600E A375 cells (clone 1F10), Nano-Glo HiBiT Lytic assay. To be noted: for Dmax: A-375. The method in brief:
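Degradation is measured as loss of HiBiT signal from BRAF V600E tagged at its native locus in A375 cells. Doses span 1 μM to 0.01 nM in half-log steps, in duplicate. Percent remaining is calculated against DMSO controls after subtracting untagged A375 background, and curve fitting yields DC50 and observed Dmax.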

In a further test the target is T2, BRAF G466V (Homo sapiens, UniProt P15056, G466V).
T2 construct: Horizon Discovery (HCT-116 BRAF−/− cells); host or cells: HCT-116 BRAF−/− cells, clone 8, lentiviral transduction
T2 sequence (P15056 whole entry G466V): as the sequence (P15056 whole entry V600E, the tested form may be a part) above, with G466V, E600V counted along it
Kind of test: BRAF HiBiT degradation assay, C-terminal HiBiT-tagged BRAF G466V overexpressed in HCT-116 BRAF−/− cells (clone 8), Nano-Glo HiBiT Lytic assay. The gist of the method:
(§1)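 First, the stable HiBiT-tagged cells were plated and incubated for 24 h. Next, compound was added in duplicate as an 11-point series with a 1 μM top concentration. Lytic detection followed, with DMSO-treated parental cells used for background. Finally, DC50 and Obs. Dmax relative to DMSO were derived from the % protein remaining curves.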

The next test concerns the target T3, BRAF G469A (Homo sapiens, UniProt P15056, G469A).
T3 construct: Horizon Discovery (HCT-116 BRAF−/− cells); host or cells: HCT-116 BRAF−/− cells, clone 34, lentiviral transduction
Kind of test: BRAF HiBiT degradation assay, C-terminal HiBiT-tagged BRAF G469A overexpressed in HCT-116 BRAF−/− cells (clone 34), Nano-Glo HiBiT Lytic assay. The gist of the method:
as §1
(With HiBiT, luminescence reflects the tagged protein that the partner subunit can reach.)

A further test addresses T4, BRAF D594G (Homo sapiens, UniProt P15056, D594G).
T4 construct: Horizon Discovery (HCT-116 BRAF−/− cells); host or cells: HCT-116 BRAF−/− cells, clone 63, lentiviral transduction
Kind of test: BRAF HiBiT degradation assay, C-terminal HiBiT-tagged BRAF D594G overexpressed in HCT-116 BRAF−/− cells (clone 63), Nano-Glo HiBiT Lytic assay. The method in brief:
as §1

Setting [1] is: A375 (BRAF V600E, Class 1), DC50 at 50% degradation.
[2] abbreviates: A375 (BRAF V600E, Class 1), observed Dmax, % protein degraded relative to DMSO control.
Setting [3] is: BRAF G466V (Class 3), HCT-116 BRAF−/− cells, DC50 at 50% degradation.
The mark [4] stands for this setting: BRAF G466V (Class 3), HCT-116 BRAF−/− cells, observed Dmax relative to DMSO control.
The mark [5] stands for this setting: BRAF G469A (Class 2), HCT-116 BRAF−/− cells, DC50 at 50% degradation.
[6] abbreviates: BRAF G469A (Class 2), HCT-116 BRAF−/− cells, observed Dmax relative to DMSO control.
The mark [7] stands for this setting: BRAF D594G (Class 3), HCT-116 BRAF−/− cells, DC50 at 50% degradation.
The mark [8] stands for this setting: BRAF D594G (Class 3), HCT-116 BRAF−/− cells, observed Dmax relative to DMSO control.
Where [9] appears, read: A375 (BRAF V600E), DC50 at 50%: fitted conc. at Y=50.
The mark [10] stands for this setting: A375 (BRAF V600E), percentage protein degraded at maximal compound effect relative to DMSO.
Setting [11] is: BRAF G466V, DC50 at 50%: fitted conc. at Y=50.
[12] abbreviates: HCT-116, BRAF G466V, percentage protein degraded at maximal compound effect relative to DMSO.
Where [13] appears, read: Class 2, BRAF G469A, DC50 at 50%: fitted conc. at Y=50.
Setting [14] is: HCT-116, Class 2, BRAF G469A, percentage protein degraded at maximal compound effect relative to DMSO.
Where [15] appears, read: BRAF D594G, DC50 at 50%: fitted conc. at Y=50.
Where [16] appears, read: HCT-116, BRAF D594G, percentage protein degraded at maximal compound effect relative to DMSO.

T3 sequence (P15056 whole entry G469A): as the sequence (P15056 whole entry V600E, the tested form may be a part) above, with G469A, E600V counted along it
T4 sequence (P15056 whole entry D594G): as the sequence (P15056 whole entry V600E, the tested form may be a part) above, with D594G, E600V counted along it

Take `C[C@@H]1CN(c2ccc(-n3cc(-c4cc(Cl)cc(NS(=O)(=O)N5CCCC5)c4F)c(-c4ccncc4)n3)nc2)CCN1CC1CCN(c2ccc(C3CCC(=O)NC3=O)cn2)CC1` (mixture of isomers) [Compound 323, N-[5-chloro-3-(1-{5-[(3R)-4-[(1-{5-[(3RS)-2,6-dioxopiperidin-3-yl]pyridin-2-yl}piperidin-4-yl)methyl]-3-methylpiperazin-1-yl]pyridin-2-yl}-3-(pyridin-4-yl)-1H-pyrazol-4-yl)-2-fluorophenyl]pyrrolidine-1-sulfonamide]: the DC50 at BRAF V600E (setting [1]), at BRAF G466V (setting [3]), at BRAF G469A (setting [5]) and on BRAF D594G (setting [7]) was under 10 nM each time. Besides, the Dmax on BRAF V600E (setting [2]), at BRAF G466V (setting [4]), on BRAF G469A (setting [6]) and at BRAF D594G (setting [8]) was over 70% each time.
As to `CCCS(=O)(=O)Nc1cccc(-c2nc(C(C)(C)C)sc2-c2ccnc(Nc3ccc(C4CCN(C(=O)CN5CCN(c6cc(C7CCC(=O)NC7=O)ccn6)CC5)CC4)cc3)n2)c1F` (racemic) [Compound 174, Rac-N-[3-(2-tert-butyl-5-{2-[(4-{1-[2-(4-{4-[(3R)-2,6-dioxopiperidin-3-yl]pyridin-2-yl}piperazin-1-yl)acetyl]piperidin-4-yl}phenyl)amino]pyrimidin-4-yl}-1,3-thiazol-4-yl)-2-fluorophenyl]propane-1-sulfonamide], the DC50 is 10 to 50 nM on BRAF V600E (setting [9]), over 500 nM on BRAF G466V (setting [11]), over 500 nM on BRAF G469A (setting [13]) and over 500 nM at BRAF D594G (setting [15]). The Dmax at BRAF V600E (setting [10]) is over 70%; at BRAF G466V (setting [12]) it was under 30%; at BRAF G469A (setting [14]), under 30%; at BRAF D594G (setting [16]) it was under 30%.
Regarding `O=C1CC[C@H](c2ccc(N3CCC(CN4CCN(c5ccc(-n6cc(-c7cc(Cl)cc(NS(=O)(=O)N8CC[C@@H](F)C8)c7F)c(-c7ccncc7)n6)nc5)CC4)CC3)cc2)C(=O)N1` [Compound 294, (3R)—N-{5-chloro-3-[1-(5-{4-[(1-{4-[(3R)-2,6-dioxopiperidin-3-yl]phenyl}piperidin-4-yl)methyl]piperazin-1-yl}pyridin-2-yl)-3-(pyridin-4-yl)-1H-pyrazol-4-yl]-2-fluorophenyl}-3-fluoropyrrolidine-1-sulfonamide], the DC50 at BRAF V600E (setting [1]), at BRAF G466V (setting [3]), on BRAF G469A (setting [5]) and on BRAF D594G (setting [7]) was under 10 nM throughout. In addition, the Dmax on BRAF V600E (setting [2]), on BRAF G466V (setting [4]), at BRAF G469A (setting [6]) and at BRAF D594G (setting [8]) was over 70% each time.
On to `O=C1CC[C@H](c2ccc(N3CCC(CN4CCN(c5cnc(-n6cc(-c7cc(Cl)cc(NS(=O)(=O)N8CCCC8)c7F)c(-c7ccncc7)n6)nc5)CC4)CC3)cc2)C(=O)N1` [Compound 360, N-{5-chloro-3-[1-(5-{4-[(1-{4-[(3R)-2,6-dioxopiperidin-3-yl]phenyl}piperidin-4-yl)methyl]piperazin-1-yl}pyrimidin-2-yl)-3-(pyridin-4-yl)-1H-pyrazol-4-yl]-2-fluorophenyl}pyrrolidine-1-sulfonamide], for which the DC50 on BRAF V600E (setting [1]), at BRAF G466V (setting [3]), at BRAF G469A (setting [5]) and on BRAF D594G (setting [7]) was under 10 nM in each case. The Dmax is over 70% at BRAF V600E (setting [2]), over 70% on BRAF G466V (setting [4]), 30 to 70% at BRAF G469A (setting [6]) and over 70% on BRAF D594G (setting [8]).
For the molecule `O=C1CC[C@H](c2ccc(N3CCC(CN4CCN(c5ccc(-n6cc(-c7cc(C(F)F)cc(NS(=O)(=O)N8CCCC8)c7F)c(-c7ccncc7)n6)c(F)c5)CC4)CC3)cc2)C(=O)N1` [Compound 362, N-[5-(difluoromethyl)-3-[1-(4-{4-[(1-{4-[(3R)-2,6-dioxopiperidin-3-yl]phenyl}piperidin-4-yl)methyl]piperazin-1-yl}-2-fluorophenyl)-3-(pyridin-4-yl)-1H-pyrazol-4-yl]-2-fluorophenyl]pyrrolidine-1-sulfonamide], the DC50 is under 10 nM on BRAF V600E (setting [1]), under 10 nM at BRAF G466V (setting [3]), 10 to 50 nM on BRAF G469A (setting [5]) and under 10 nM on BRAF D594G (setting [7]). Besides, the Dmax was over 70% on BRAF V600E (setting [2]), over 70% at BRAF G466V (setting [4]), 30 to 70% at BRAF G469A (setting [6]) and 30 to 70% at BRAF D594G (setting [8]).
Consider `CCCS(=O)(=O)Nc1cccc(-c2nc(C3CCN(C(=O)C4CCN(C(=O)C5CCN(c6ccc(C7CCC(=O)NC7=O)cn6)CC5)CC4)CC3)sc2-c2ccnc(NC)n2)c1F` (racemic) [Compound 212, Rac-N-[3-(2-{1-[1-(1-{5-[(3R)-2,6-dioxopiperidin-3-yl]pyridin-2-yl}piperidine-4-carbonyl)piperidine-4-carbonyl]piperidin-4-yl}-5-[2-(methylamino)pyrimidin-4-yl]-1,3-thiazol-4-yl)-2-fluorophenyl]propane-1-sulfonamide], for which the DC50 is under 10 nM at BRAF V600E (setting [9]), under 10 nM on BRAF G466V (setting [11]), 10 to 50 nM at BRAF G469A (setting [13]) and under 10 nM on BRAF D594G (setting [15]). For the same molecule, the Dmax at BRAF V600E (setting [10]) is over 70%; at BRAF G466V (setting [12]) it was 30 to 70%; on BRAF G469A (setting [14]), 30 to 70%; at BRAF D594G (setting [16]), 30 to 70%.
`O=C1CC[C@H](c2ccc(N3CCC(CN4CCN(c5ccc(-n6cc(-c7cc(F)cc(NS(=O)(=O)N8CCCC8)c7F)c(-c7ccncc7)n6)cc5)CC4)CC3)nc2)C(=O)N1` [Compound 301, N-{3-[1-(4-{4-[(1-{5-[(3R)-2,6-dioxopiperidin-3-yl]pyridin-2-yl}piperidin-4-yl)methyl]piperazin-1-yl}phenyl)-3-(pyridin-4-yl)-1H-pyrazol-4-yl]-2,5-difluorophenyl}pyrrolidine-1-sulfonamide]: the 50% degradation concentration (DC50) at BRAF V600E (setting [1]) was under 10 nM; at BRAF G466V (setting [3]) it was under 10 nM; on BRAF G469A (setting [5]), 10 to 50 nM; on BRAF D594G (setting [7]), under 10 nM. In addition, the Dmax on BRAF V600E (setting [2]) is over 70%; at BRAF G466V (setting [4]), over 70%; on BRAF G469A (setting [6]), over 70%; at BRAF D594G (setting [8]), 30 to 70%.
For the molecule `O=C1CCC(c2ccc(N3CCC(CN4CCN(c5ccc(-n6cc(-c7cc(Cl)cc(NS(=O)(=O)C8CCCC8)c7F)c(-c7ccncc7)n6)cc5)CC4)CC3)nc2)C(=O)N1` (racemic) [Compound 373, Rac-N-{5-chloro-3-[1-(4-{4-[(1-{5-[(3R)-2,6-dioxopiperidin-3-yl]pyridin-2-yl}piperidin-4-yl)methyl]piperazin-1-yl}phenyl)-3-(pyridin-4-yl)-1H-pyrazol-4-yl]-2-fluorophenyl}cyclopentanesulfonamide], the DC50 on BRAF V600E (setting [1]) was under 10 nM; at BRAF G466V (setting [3]) it was under 10 nM; on BRAF G469A (setting [5]) it was 10 to 50 nM; at BRAF D594G (setting [7]), under 10 nM. Further, the Dmax at BRAF V600E (setting [2]), at BRAF G466V (setting [4]), on BRAF G469A (setting [6]) and on BRAF D594G (setting [8]) was over 70% throughout.
Take `O=C1CC[C@H](c2ccc(N3CCC(CN4CCN(c5ccc(-n6cc(-c7cc(Cl)cc(NS(=O)(=O)N8CC[C@@H](F)C8)c7F)c(-c7ccncc7)n6)c(F)c5)CC4)CC3)cc2)C(=O)N1` [Compound 336, (3R)—N-{5-chloro-3-[1-(4-{4-[(1-{4-[(3R)-2,6-dioxopiperidin-3-yl]phenyl}piperidin-4-yl)methyl]piperazin-1-yl}-2-fluorophenyl)-3-(pyridin-4-yl)-1H-pyrazol-4-yl]-2-fluorophenyl}-3-fluoropyrrolidine-1-sulfonamide]: the DC50 is under 10 nM on BRAF V600E (setting [1]), under 10 nM on BRAF G466V (setting [3]), 10 to 50 nM at BRAF G469A (setting [5]) and under 10 nM at BRAF D594G (setting [7]). The Dmax on BRAF V600E (setting [2]), at BRAF G466V (setting [4]), at BRAF G469A (setting [6]) and at BRAF D594G (setting [8]) was over 70% in each case.
